Measured values as given in article PMC6494957 (Frontiers in Microbiology, 2019).
Like-named read-outs stand apart in the source and are kept apart here.

Key:
[1] = test system: preformed biofilms of two clinical isolates of S. pseudintermedius; assay: Antibiofilm susceptibility (MBEC device) and biofilm checkerboard; format: cell-based, Staphylococcus pseudintermedius
Protocol: Briefly, biofilms of P. aeruginosa PA01, two clinical isolates of P. aeruginosa isolates and two clinical isolates of S. pseudintermedius were formed by inoculating 150 μl of 10^7 CFU/ml of each bacterial suspension in the MBEC^TM device. The inoculated device was aerobically incubated on an orbital shaker at 37°C (OM11, Ratek Instruments Pty Ltd., Australia) for 24 h to produce equivalent (Uniform) biofilms on all pegs. […] Following antimicrobial challenge, the biofilms were rinsed twice with phosphate buffered saline (pH = 7) and disrupted via sonication (Soniclean, Model 160TD, Australia) for 10 min into the recovery medium. Viable cell counts were determined for recovered cells (colony-forming units per peg) after preparing a serial dilution and plating 10 μl in duplicates of each dilution onto plate count agar. Viable counts were then expressed as a percentage of the mean CFU of growth controls. MBEC was defined as the lowest concentration of antimicrobial agent that eradicates the biofilms recovered from the antimicrobial challenge.
Briefly, the MBEC^TM High-throughput assay system (MBEC^TM BioProducts, Innovotech, Canada) was used for the preparation of Gram-positive and Gram-negative biofilm producing bacteria as described above for antibiofilm susceptibility testing. […] Subsequently, the plate was incubated at 37°C for 24 h.

Acinetobacter spp. = assay: Checkerboard, summary for Acinetobacter spp.; format: cell-based; conditions: in the presence of EDTA and PMBN
Protocol: Briefly, antimicrobial stock solutions for robenidine and PMBN were prepared at a concentration of 12.8 mg/ml in DMSO. […] A 1 μl aliquot of the first compound from each combination was dispensed along the abscissa (from row A to G) of the 96-well microplate, while the second compound was dispensed along the ordinate (from column 12 to column 3) using an electronic multichannel pipette followed by 89 μl of LB broth. Each well of the plate was inoculated with an aliquot of 10 μl bacterial suspension at a concentration of 1-5 × 10^6 colony forming units (CFU) per ml. Subsequently, the plate was incubated at 37°C for 24 h. The fractional inhibitory concentration index (FICI) described the results of the combinations, and was calculated utilizing the following formula:
DRI = MIC of drug alone/MIC of drug in combination

[2] = design: method as in Abraham et al., 2016; conditions: ref Abraham et al., 2016, cited from earlier work
[3] = test system: 10 A. calcoaceticus isolated from human clinical cases; assay: MIC/MBC, human clinical Acinetobacter isolates; format: cell-based; conditions: 10 A. calcoaceticus human clinical isolates
Description: (§1) Escherichia coli ATCC 25922, E. coli ATCC 11229, P. aeruginosa ATCC 27853, P. aeruginosa PA01, Pseudomonas putida ATCC 17428, P. mirabilis ATCC 43071, K. pneumoniae ATCC 13883, A. baumannii ATCC 19606, and A. baumannii ATCC 12457 were used for preliminary susceptibility testing and combination experiments. S. aureus ATCC 29213 and S. pneumoniae ATCC 49619 were used as internal quality controls. A variety of bacterial organisms from both human and canine infections were investigated in this study (n = 119 isolates in total). Twenty-eight clinical Acinetobacter spp. isolates were obtained from cases of human skin and soft tissue infections, including 18 Acinetobacter baumannii and 10 A. calcoaceticus, kindly provided by a person (Institute of Medical and Veterinary Science, South Australia). […] Ninety-one clinical isolates were obtained from cases of canine otitis externa, including seven methicillin-susceptible S. pseudintermedius (MSSP), 13 multidrug- and methicillin-resistant S. pseudintermedius (MRSP) ([Saputra et al., 2017]), 20 beta-haemolytic Streptococcus spp., 30 P. aeruginosa (10 of them resistant to gentamicin and 21 P. mirabilis isolates). These isolates were obtained from the bacterial collection of the national survey of antimicrobial resistance in animals conducted in Australia. Swab samples from dogs with signs of otitis externa were collected by veterinarians and submitted to government, private or university diagnostic laboratories throughout Australia. After routine bacterial identification and the removal of confidential information, the participating veterinary diagnostic laboratories submitted the bacteria and their clinical information to PC2 Laboratories, Australian Centre for Antimicrobial Resistance Ecology, School of Animal and Veterinary Sciences, University of Adelaide, Roseworthy Campus, Roseworthy, SA, Australia, for further study. Thus, animal ethics approval was not required in this study. These organisms were identified to species level using biochemical testing and MALDI-TOF mass spectrometry (Bruker, Preston, VIC, Australia).
(§2) The MIC for ampicillin or gentamicin against each isolate was determined for each test to serve as an internal quality control. The MICs of isolates were determined by visual reading and using an EnSpire Multimode Plate Reader 2300 atA600nm.
(§3) Briefly, 10 μl aliquots from each duplicate well from the MIC assays (starting from the MIC for each compound) were inoculated onto a sheep blood agar (SBA) plate and incubated at 37°C.

[4] = test system: 18 A. baumannii isolated from human clinical cases; assay: MIC/MBC, human clinical Acinetobacter isolates; format: cell-based; conditions: 18 A. baumannii human clinical isolates
Description: as §1, §2, §3

clinical MRSA = test system: clinical MRSA; design: method as in Abraham et al., 2016; Ogunniyi et al., 2017; conditions: ref Abraham et al., 2016, Ogunniyi et al., 2017; cited from earlier work
HEK 293 cell line = assay: In vitro cytotoxicity, WST-1; format: cell-based; conditions: Homo sapiens, HEK293, 10% FBS, read-out: IC50, single agent
Protocol: (§4) Cells were maintained in Dulbecco’s modified Eagle’s medium (DMEM) with 10% fetal bovine serum (FBS) and 1% PenStrep (100 U/mL Penicillin and 100 μg/mL Streptomycin) at 37°C with 5% CO2. Cells were serially passaged at ∼80% confluence ∼ every 4 days. Assays were performed in duplicate in 96 well plates seeded with ∼25,000 cells per well. […] Briefly, the antimicrobials were prepared by performing a twofold serial dilution at 100× of tested concentration in DMSO. Subsequently, a 1 μl aliquot of each concentration was transferred to a sterile 96-well plate containing fresh DMEM with either 10% FBS. After mixing four times, the media aliquots with different concentrations of antimicrobial were transferred to each well of the 96-well plate seeded with cells, using wells containing 1–2% DMSO only as control. To determine the effect of FBS on the cytotoxicity of each compound, DMEM with 40% FBS containing different concentrations of antimicrobial was prepared as described above. After 24 h of exposure, WST-1 reagent (Cell Proliferation Assay reagent, Roche) at a concentration of 10% was added to each well. Absorbance at A450 nm on a Multiskan Ascent 354 Spectrophotometer (Labsystems) was measured after 1 h of incubation. The IC50 value was determined for each compound against each cell line via non-linear regression (three parameters) using GraphPad Prism v6 software.

MDCK cell line = assay: In vitro cytotoxicity, WST-1; format: cell-based, canine; conditions: Canis lupus familiaris, 10% FBS, read-out: IC50, single agent
Protocol: as §4

Row | Compound | antibiofilm activity ([1]; S. pseudintermedius biofilms, up to 128 μg/ml, 24 h) | fold reduction of robenidine MICs (Acinetobacter spp.) | serum impact on MIC values ([2]; 10% serum) | serum impact on MIC values ([2]; 50% serum) | MIC range [3] [µg/mL] | MIC ([3]; Acinetobacter calcoaceticus) [µg/mL] | MIC range [4] [µg/mL] | MIC ([4]; Acinetobacter baumannii) [µg/mL] | effective concentrations (MIC range) (clinical MRSA) [µg/mL] | IC50 (HEK 293 cell line) [mM] | concentration with significant disruption of 24 h preformed biofilms ([1]; Gram-positive (S. pseudintermedius) biofilms, vs growth control) [mM] | IC50 (MDCK cell line) [mM]
1 | N=C(N/N=C/c1ccc(Cl)cc1)N/N=C/c1ccc(Cl)cc1 [ROB, robenidine] | did not show any antibiofilm activity | 8- to 32 fold | fourfold increase | no antimicrobial activity | 1 to 8 | 2 | 8 to 64 | 8 | 1 to 2 |  |  | 
2 | O=C(O)CN(CCN(CC(=O)O)CC(=O)O)CC(=O)O [EDTA, ethylenediaminetetraacetic acid] |  |  |  |  |  |  |  |  |  | 3.4 | 1 | 3.4
